Source: article PMC9234962, “Optimization of Peptide Linker-Based Fluorescent Ligands for the Histamine H1 Receptor” (Journal of Medicinal Chemistry, 2022)
Square brackets hold non-standard residues; d marks the D form. Side chains are listed from the residue outwards. Peptide text beside a SMILES is read from it. * marks the point of attachment. X1 = O=C(COc1ccc(/C=C/C2=[N+]3C(=Cc4ccc(-c5cccs5)n4[B-]3(F)F)C=C2)cc1)*; Propanoyl(3-Pip(4-O-2-BnPh)) = O=C(CCN1CCC(Oc2ccccc2Cc2ccccc2)CC1)*; Ahx = NCCCCCC(=O)O; βAla = NCCC(=O)O

Target: Nluc-H1R (Homo sapiens, UniProt P35367)
Sequence (P35367 whole entry): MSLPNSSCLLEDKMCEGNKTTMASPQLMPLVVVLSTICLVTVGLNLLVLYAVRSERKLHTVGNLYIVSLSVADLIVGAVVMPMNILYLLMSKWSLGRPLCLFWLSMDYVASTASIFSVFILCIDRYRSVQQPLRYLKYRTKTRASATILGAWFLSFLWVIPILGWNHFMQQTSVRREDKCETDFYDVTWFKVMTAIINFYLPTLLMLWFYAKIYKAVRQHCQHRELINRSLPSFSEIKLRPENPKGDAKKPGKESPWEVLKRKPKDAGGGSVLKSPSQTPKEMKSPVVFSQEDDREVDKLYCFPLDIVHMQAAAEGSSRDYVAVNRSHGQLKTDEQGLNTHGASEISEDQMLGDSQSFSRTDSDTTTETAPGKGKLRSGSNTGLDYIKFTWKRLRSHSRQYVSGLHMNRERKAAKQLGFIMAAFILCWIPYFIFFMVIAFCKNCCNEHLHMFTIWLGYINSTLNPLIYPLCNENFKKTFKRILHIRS
Experiment: NanoBRET saturation binding assay on Nluc-H1R expressing HEK293T cells
Parameters: expressed in transfected cells
Conditions: saturation binding curves, whole HEK293T cells; for pKD: non-specific with 10 μM mepyramine, mean ± SEM
Excerpt: Total and non-specific saturation binding curves from NanoBRET saturation binding assay were fitted simultaneously using eq 1: [drawing 4] 1 where Bmax is the maximal specific binding, [B] is the concentration of fluorescent ligand in nM, KD is the equilibrium dissociation constant in nM, M is the slope of the non-specific component, and C is the intercept with the Y axis.

SMILES | Kd | pKD
C[C@H](NC(=O)[C@@H](NC(=O)CCN1CCC(Oc2ccccc2Cc2ccccc2)CC1)[C@@H](C)O)C(=O)N[C@@H](Cc1ccc(O)cc1)C(=O)NCCC(=O)N[C@@H](CCCCNC(=O)COc1ccc(/C=C/C2=[N+]3C(=Cc4ccc(-c5cccs5)n4[B-]3(F)F)C=C2)cc1)C(N)=O [Compound 31h, (S)-2-((6S,9S,12S)-16-(4-(2-Benzylphenoxy)piperidin-1-yl)-6-(4-hydroxybenzyl)-12-((R)-1-hydroxyethyl)-9-methyl-5,8,11,14-tetraoxo-4,7,10,13-tetraazahexadecanamido)-6-(2-(4-((E)-2-(5,5-Difluoro-7-(thiophen-2-yl)-5H-5λ^4,6λ^4-dipyrrolo[1,2-c:2’,1’-f][1,3,2]diazaborinin-3-yl)vinyl)phenoxy)acetamido)hexanamide] ({Propanoyl(3-Pip(4-O-2-BnPh))}-TAY[βAla]K(X1)-NH2) | 6 nM | 8.23 ± 0.17
CC[C@H](C)[C@H](NC(=O)CCN1CCC(Oc2ccccc2Cc2ccccc2)CC1)C(=O)N[C@@H](CO)C(=O)N[C@@H](CC(N)=O)C(=O)NCCC(=O)N[C@@H](CCCCNC(=O)COc1ccc(/C=C/C2=[N+]3C(=Cc4ccc(-c5cccs5)n4[B-]3(F)F)C=C2)cc1)C(N)=O [Compound 31i, (S)-N1-(3-(((S)-1-Amino-6-(2-(4-((E)-2-(5,5-difluoro-7-(thiophen-2-yl)-5H-5λ^4,6λ^4-dipyrrolo[1,2-c:2’,1’-f][1,3,2]diazaborinin-3-yl)vinyl)phenoxy)acetamido)-1-oxohexan-2-yl)amino)-3-oxopropyl)-2-((S)-2-((2S,3S)-2-(3-(4-(2-benzylphenoxy)piperidin-1-yl)propanamido)-3-methylpentanamido)-3-hydroxypropanamido)succinamide] ({Propanoyl(3-Pip(4-O-2-BnPh))}-ISN[βAla]K(X1)-NH2) | 5 nM | 8.33 ± 0.09
CC(C)C[C@H](NC(=O)CCN1CCC(Oc2ccccc2Cc2ccccc2)CC1)C(=O)N[C@@H](CO)C(=O)N[C@@H](CC(N)=O)C(=O)NCCC(=O)N[C@@H](CCCCNC(=O)COc1ccc(/C=C/C2=[N+]3C(=Cc4ccc(-c5cccs5)n4[B-]3(F)F)C=C2)cc1)C(N)=O [Compound 31j, (S)-N1-(3-(((S)-1-Amino-6-(2-(4-((E)-2-(5,5-difluoro-7-(thiophen-2-yl)-5H-5λ^4,6λ^4-dipyrrolo[1,2-c:2’,1’-f][1,3,2]diazaborinin-3-yl)vinyl)phenoxy)acetamido)-1-oxohexan-2-yl)amino)-3-oxopropyl)-2-((S)-2-((S)-2-(3-(4-(2-benzylphenoxy)piperidin-1-yl)propanamido)-4-methylpentanamido)-3-hydroxypropanamido)succinamide] ({Propanoyl(3-Pip(4-O-2-BnPh))}-LSN[βAla]K(X1)-NH2) | 6 nM | 8.23 ± 0.06
CC(C)[C@H](NC(=O)CCN1CCC(Oc2ccccc2Cc2ccccc2)CC1)C(=O)N[C@@H](CO)C(=O)N[C@@H](CC(N)=O)C(=O)NCCC(=O)N[C@@H](CCCCNC(=O)CCCCCNC(=O)COc1ccc(/C=C/C2=[N+]3C(=Cc4ccc(-c5cccs5)n4[B-]3(F)F)C=C2)cc1)C(N)=O [Compound 38a, (S)-N^1-(3-(((S)-1-Amino-6-(6-(2-(4-((E)-2-(5,5-difluoro-7-(thiophen-2-yl)-5H-4λ^4,5λ^4-dipyrrolo[1,2-c:2’,1’-f][1,3,2]diazaborinin-3-yl)vinyl)phenoxy)acetamido)hexanamido)-1-oxohexan-2-yl)amino)-3-oxopropyl)-2-((S)-2-((S)-2-(3-(4-(2-benzylphenoxy)piperidin-1-yl)propanamido)-3-methylbutanamido)-3-hydroxypropanamido)succinamide] ({Propanoyl(3-Pip(4-O-2-BnPh))}-VSN[βAla]K([Ahx-X1])-NH2) | 18 nM | 7.74 ± 0.06
